From patent US11833156B2, “Heterocyclic compounds as pad inhibitors” (JUBILANT EPIPAD LLC, priority 2017, dated 2023)

molecular target: PAD4 enzyme (Homo sapiens (Human), UniProt Q9UM07); assay: Ammonia Release Biochemical Assay (citrullination detected via ammonia release); conditions: PAD4 120 nM, substrate BAEE, 60-min preincubation, read-out: NH3 release
Description: Ammonia Release Biochemical Assay
Citrullination assay was detected via ammonia release. PAD4 enzyme was diluted to 120 nM in assay buffer (100 mM HEPES, 50 mM NaCl, 2 mM DDT, 0.6 mg/mL BSA, pH 7.4) added to wells containing various concentration of compound or DMSO vehicle (1% final) in black 384 well plate. Following a 60-min preincubation at room temperature, the reaction was initiated by the addition of substrate (1.5 mM BAEE in 200 mM HEPES, 50 mM NaCl, 350 uM CaCl2, 2 mM, pH 7.4). The reaction was stopped after 60 min by addition of stop/detection buffer containing 50 mM EDTA, 2.6 mM of o-phthaladehyde and 2.6 mM DTT. Assay was incubated at room temperature for 90 min before measuring fluorescence's (λex 405/λem 460 nm) on Tecan reader. IC50 was calculated using XL-fit software model 205. (Ref: Nat Chem Biol. 2015 March; 11(3):189-91).

Sequence of PAD4 enzyme (Q9UM07 whole entry): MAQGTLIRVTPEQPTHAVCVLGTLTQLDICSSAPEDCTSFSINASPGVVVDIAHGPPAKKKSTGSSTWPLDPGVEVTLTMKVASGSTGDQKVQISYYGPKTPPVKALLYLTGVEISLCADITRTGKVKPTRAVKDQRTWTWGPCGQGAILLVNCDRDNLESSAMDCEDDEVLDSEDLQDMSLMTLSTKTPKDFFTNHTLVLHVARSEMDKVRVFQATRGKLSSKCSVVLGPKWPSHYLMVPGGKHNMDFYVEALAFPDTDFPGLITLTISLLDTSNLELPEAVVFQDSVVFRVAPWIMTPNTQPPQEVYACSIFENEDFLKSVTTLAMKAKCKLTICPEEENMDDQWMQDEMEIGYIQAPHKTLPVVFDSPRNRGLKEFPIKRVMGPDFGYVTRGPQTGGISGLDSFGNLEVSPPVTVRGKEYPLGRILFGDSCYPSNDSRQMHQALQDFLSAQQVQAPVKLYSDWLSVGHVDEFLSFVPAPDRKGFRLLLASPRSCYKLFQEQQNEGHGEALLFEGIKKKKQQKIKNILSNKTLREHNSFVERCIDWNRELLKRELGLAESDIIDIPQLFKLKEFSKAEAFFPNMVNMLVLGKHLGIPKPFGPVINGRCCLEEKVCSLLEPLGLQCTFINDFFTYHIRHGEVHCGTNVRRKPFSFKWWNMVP

**Q.** With `CN1CCC(Cn2c(-c3nc4cc(C(=O)N5CCC[C@@H](N)C5)cc5c4n3CCO5)cc3ccccc32)CC1` [Example 45, (R)-(3-aminopiperidin-1-yl)(2-(1-((l-methylpiperidin-4-yl)methyl)-1H-indol-2-yl)-3,4-dihydro-5-oxa-1,2a-diazaacenaphthylen-7-yl)methanone] as the compound, how does the IC50 read?
**A.** ≥ 10 µM

**Q.** `COc1ccc(Cn2c(-c3nc4cc(C(=O)N5CCC[C@@H](N)C5)cc5c4n3CCO5)cc3cc(F)ccc32)cc1` [Example 46, (R)-(3-aminopiperidin-1-yl)(2-(5-fluoro-1-(4-methoxybenzyl)-1H-indol-2-yl)-3,4-dihydro-5-oxa-1,2a-diazaacenaphthylen-7-yl)methanone] was tested. Which IC50 did it give?
**A.** ≤ 1 µM

**Q.** Which IC50 does the source give for `N[C@@H]1CCCN(C(=O)c2cc3c4c(c2)nc(-c2cc5ccccc5n2CC(F)F)n4CCO3)C1` [Example 47, (R)-(3-aminopiperidin-1-yl)(2-(1-(2,2-difluoroethyl)-1H-indol-2-yl)-3,4-dihydro-5-oxa-1,2a-diazaacenaphthylen-7-yl)methanone] here?
**A.** ≤ 1 µM

**Q.** `COCCn1c(-c2nc3cc(C(=O)N4CCC[C@@H](N)C4)cc4c3n2CCO4)cc2cc(F)ccc21` [Example 48, (R)-(3-aminopiperidin-1-yl)(2-(5-fluoro-1-(2-methoxyethyl)-1H-indol-2-yl)-3,4-dihydro-5-oxa-1,2a-diazaacenaphthylen-7-yl)methanone] was tested. Which IC50 did it give?
**A.** ≤ 1 µM

**Q.** Which IC50 does the source give for `N[C@@H]1CCCN(C(=O)c2cc3c4c(c2)nc(-c2cc5ccc(F)cc5n2Cc2ccc(F)cc2)n4CCO3)C1` [Example 49, (R)-(3-aminopiperidin-1-yl)(2-(6-fluoro-1-(4-fluorobenzyl)-1H-indol-2-yl)-3,4-dihydro-5-oxa-1,2a-diazaacenaphthylen-7-yl)methanone] here?
**A.** ≤ 1 µM

**Q.** With `COc1ccc(Cn2c(-c3nc4cc(C(=O)N5CCC[C@@H](N)C5)cc5c4n3CCO5)cc3ccc(F)cc32)cc1` [Example 50, (R)-(3-aminopiperidin-1-yl)(2-(6-fluoro-1-(4-methoxybenzyl)-1H-indol-2-yl)-3,4-dihydro-5-oxa-1,2a-diazaacenaphthylen-7-yl)methanone] as the compound, how does the IC50 read?
**A.** ≤ 1 µM

**Q.** With `COc1ccc2cc(-c3nc4cc(C(=O)N5CCC[C@@H](N)C5)cc5c4n3CCO5)n(Cc3ccc(F)cc3)c2c1` [Example 51, (R)-(3-aminopiperidin-1-yl)(2-(1-(4-fluorobenzyl)-6-methoxy-1H-indol-2-yl)-3,4-dihydro-5-oxa-1,2a-diazaacenaphthylen-7-yl)methanone] as the compound, how does the IC50 read?
**A.** ≤ 1 µM

**Q.** How did the IC50 turn out when `COCCn1c(-c2nc3cc(C(=O)N4CCC[C@@H](N)C4)cc4c3n2CCO4)cc2ccc(F)cc21` [Example 52] was run?
**A.** 1 to 10 µM

**Q.** Which IC50 does the source give for `COCCn1c(-c2nc3cc(C(=O)N4CCC[C@@H](N)C4)cc4c3n2CCO4)cc2cc(F)c(F)cc21` [Example 54, (R)-(3-aminopiperidin-1-yl)(2-(5,6-difluoro-1-(2-methoxyethyl)-1H-indol-2-yl)-3,4-dihydro-5-oxa-1,2a-diazaacenaphthylen-7-yl)methanone] here?
**A.** 1 to 10 µM

**Q.** With `CC(C)Cn1c(-c2nc3cc(C(=O)N4CCC[C@@H](N)C4)cc4c3n2CCO4)cc2cccc(Cl)c21` [Example 55, (R)-(3-aminopiperidin-1-yl)(2-(7-chloro-1-isobutyl-1H-indol-2-yl)-3,4-dihydro-5-oxa-1,2a-diazaacenaphthylen-7-yl)methanone] as the compound, how does the IC50 read?
**A.** ≤ 1 µM

**Q.** For `N[C@@H]1CCCN(C(=O)c2cc3c4c(c2)nc(-c2cc5cccc(Cl)c5n2CC(F)F)n4CCO3)C1` [Example 56, (R)-(3-aminopiperidin-1-yl)(2-(7-chloro-1-(2,2-difluoroethyl)-1H-indol-2-yl)-3,4-dihydro-5-oxa-1,2a-diazaacenaphthylen-7-yl)methanone], which IC50 is on record?
**A.** ≤ 1 µM

**Q.** How did the IC50 turn out when `N[C@@H]1CCCN(C(=O)c2cc3c4c(c2)nc(-c2cc5cccc(Cl)c5n2CC2CC2)n4CCO3)C1` [Example 57, (R)-(3-aminopiperidin-1-yl)(2-(7-chloro-1-(cyclopropylmethyl)-1H-indol-2-yl)-3,4-dihydro-5-oxa-1,2a-diazaacenaphthylen-7-yl)methanone] was run?
**A.** ≤ 1 µM

**Q.** `N[C@@H]1CCCN(C(=O)c2cc3c4c(c2)nc(-c2cc5cc(/C=C/c6ccccc6)ccc5n2CC2CC2)n4CCO3)C1` [Example 58, (R,E)-(3-aminopiperidin-1-yl)(2-(1-(cyclopropylmethyl)-5-styryl-1H-indol-2-yl)-3,4-dihydro-5-oxa-1,2a-diazaacenaphthylen-7-yl)methanone] was tested. Which IC50 did it give?
**A.** 1 to 10 µM

**Q.** `Cc1csc(Cn2c(-c3nc4cc(C(=O)N5CCC[C@@H](N)C5)cc5c4n3CCO5)cc3ccccc32)n1` [Example 59, (R)-(3-aminopiperidin-1-yl)(2-(1-((4-methylthiazol-2-yl)methyl)-1H-indol-2-yl)-3,4-dihydro-5-oxa-1,2a-diazaacenaphthylen-7-yl)methanone] was tested. Which IC50 did it give?
**A.** ≤ 1 µM

**Q.** `COc1ccc2c(c1)cc(-c1nc3cc(C(=O)N4CCC[C@@H](N)C4)cc4c3n1CCO4)n2CC1CC1` [Example 60, (R)-(3-aminopiperidin-1-yl)(2-(1-(cyclopropylmethyl)-5-methoxy-1H-indol-2-yl)-3,4-dihydro-5-oxa-1,2a-diazaacenaphthylen-7-yl)methanone] was tested. Which IC50 did it give?
**A.** ≤ 1 µM

**Q.** `N[C@@H]1CCCN(C(=O)c2cc3c4c(c2)nc(-c2cc5ccc(CO)cc5n2CC2CC2)n4CCO3)C1` [Example 61, (R)-(3-aminopiperidin-1-yl)(2-(1-(cyclopropylmethyl)-6-(hydroxymethyl)-1H-indol-2-yl)-3,4-dihydro-5-oxa-1,2a-diazaacenaphthylen-7-yl)methanone] was tested. Which IC50 did it give?
**A.** ≤ 1 µM

**Q.** Which IC50 does the source give for `CC1(C)COc2cc(C(=O)N3CCC[C@@H](N)C3)cc3nc(-c4cc5ccccc5n4CC4CC4)n1c23` [Example 62, (R)-(3-aminopiperidin-1-yl)(2-(1-(cyclopropylmethyl)-1H-indol-2-yl)-3,3-dimethyl-3,4-dihydro-5-oxa-1,2a-diazaacenaphthylen-7-yl)methanone] here?
**A.** ≥ 10 µM

**Q.** How did the IC50 turn out when `N[C@@H]1CCCN(C(=O)c2cc3c4c(c2)nc(-c2cc5cc(Br)ccc5n2CC2CC2)n4CCN3)C1` [Example 67, (R)-(3-aminopiperidin-1-yl)(2-(5-bromo-1-(cyclopropylmethyl)-1H-indol-2-yl)-5,6-dihydro-4H-imidazo [1,5,4-de]quinoxalin-8-yl)methanone] was run?
**A.** ≤ 1 µM

**Q.** For `N[C@@H]1CCCN(C(=O)c2cc3c4c(c2)nc(-c2cc5cc(-c6cccnc6)ccc5n2CC2CC2)n4CCN3)C1` [Example 68, (R)-(3-aminopiperidin-1-yl)(2-(1-(cyclopropylmethyl)-5-(pyridin-3-yl)-1H-indol-2-yl)-5,6-dihydro-4H-imidazo [1,5,4-de]quinoxalin-8-yl)methanone], which IC50 is on record?
**A.** 1 to 10 µM

**Q.** For `N[C@@H]1CCCN(C(=O)c2cc3c4c(c2)nc(-c2cc5ccccc5n2Cc2ccccn2)n4CCN3)C1` [Example 69, (R)-(3-aminopiperidin-1-yl)(2-(1-(pyridin-2-ylmethyl)-1H-indol-2-yl)-5,6-dihydro-4H-imidazo[1,5,4-de]quinoxalin-8-yl)methanone], which IC50 is on record?
**A.** ≤ 1 µM

**Q.** How did the IC50 turn out when `N[C@@H]1CCCN(C(=O)c2cc3c4c(c2)nc(-c2cc5ccccc5n2Cc2ccccc2F)n4CCN3)C1` [Example 70, (R)-(3-aminopiperidin-1-yl)(2-(1-(2-fluorobenzyl)-1H-indol-2-yl)-5,6-dihydro-4H-imidazo[1,5,4-de]quinoxalin-8-yl)methanone] was run?
**A.** ≤ 1 µM

**Q.** Which IC50 does the source give for `N[C@@H]1CCCN(C(=O)c2cc3c4c(c2)nc(-c2cc5ccccc5n2Cc2ccncc2)n4CCN3)C1` [Example 71, (R)-(3-aminopiperidin-1-yl)(2-(1-(pyridin-4-ylmethyl)-1H-indol-2-yl)-5,6-dihydro-4H-imidazo[1,5,4-de]quinoxalin-8-yl)methanone] here?
**A.** ≤ 1 µM

**Q.** How did the IC50 turn out when `COc1ccc2cc(-c3nc4cc(C(=O)N5CCC[C@@H](N)C5)cc5c4n3CCN5C)n(CC3CC3)c2c1` [Example 74, (R)-(3-aminopiperidin-1-yl)(2-(1-(cyclopropylmethyl)-6-methoxy-1H-indol-2-yl)-6-methyl-5,6-dihydro-4H-imidazo[1,5,4-de]quinoxalin-8-yl)methanone] was run?
**A.** ≤ 1 µM

**Q.** Which IC50 does the source give for `CN1CCn2c(-c3cc4cc(F)ccc4n3CC3CC3)nc3cc(C(=O)N4CCC[C@@H](N)C4)cc1c32` [Example 75, (R)-(3-aminopiperidin-1-yl)(2-(1-(cyclopropylmethyl)-5-fluoro-1H-indol-2-yl)-6-methyl-5,6-dihydro-4H-imidazo[1,5,4-de]quinoxalin-8-yl)methanone] here?
**A.** ≤ 1 µM

**Q.** How did the IC50 turn out when `N[C@@H]1CCCN(C(=O)c2cc3c4c(c2)nc(-c2cc5ccccc5n2CC2CC2)n4CCN3C2CC2)C1` [Example 78, (R)-(3-aminopiperidin-1-yl)(6-cyclopropyl-2-(1-(cyclopropylmethyl)-1H-indol-2-yl)-5,6-dihydro-4H-imidazo[1,5,4-de]quinoxalin-8-yl)methanone] was run?
**A.** ≤ 1 µM

**Q.** With `N[C@@H]1CCCN(C(=O)c2cc3c4c(c2)nc(-c2cc5ccccc5n2CC2CC2)n4CCN3S(=O)(=O)CCc2ccccc2)C1` [Example 79, (R)-(3-aminopiperidin-1-yl)(2-(1-(cyclopropylmethyl)-1H-indol-2-yl)-6-(phenethylsulfonyl)-5,6-dihydro-4H-imidazo[1,5,4-de]quinoxalin-8-yl)methanone] as the compound, how does the IC50 read?
**A.** 1 to 10 µM

**Q.** How did the IC50 turn out when `N[C@@H]1CCCN(C(=O)c2cc3c4c(c2)nc(-c2cc5c(F)cccc5n2CC2CC2)n4CCN3)C1` [Example 80, (R)-(3-aminopiperidin-1-yl)(2-(1-(cyclopropylmethyl)-4-fluoro-1H-indol-2-yl)-5,6-dihydro-4H-imidazo[1,5,4-de]quinoxalin-8-yl)methanone] was run?
**A.** 1 to 10 µM
